Measurements reported in patent US20200404907A1, “METHOD OF REDUCING CROP DAMAGE” (BAYER AKTIENGESELLSCHAFT, priority 2018, published 2020).

How the values were obtained:
[1] = test system: wheat seeds (winter wheat, TRZAW); assay: Method D: safener seed treatment then pre-emergence herbicide plus safener tank mix, visual crop damage; format: in vivo
Experimental: (§1) For the safener seed treatment, sufficient seeds were weighed into screw top glass bottles approximately twice the volume of the seeds.
(§2) The safener (mefenpyr-diethyl, formulated as suspension concentrate (SC)) was weighed out so that the required rates (g a.i./kg seed) would be obtained, dissolved in water (1 ml water per 10 g of seeds), and added to the seeds to produce a slurry.
(§3) The bottles were capped and then placed in an overhead shaker (set at medium speed for up to 1 hour) so that the seeds were evenly coated with the slurry. The bottles were uncapped and the seeds were sown as described above.
(§4) For the seed treatment process, the blind formulation (the SC formulation without the safener mefenpyr-diethyl) was used as seed treatment as described above.

[2] = test system: wheat seeds (winter wheat, TRZAW); assay: Method C: safener seed treatment then post-emergence herbicide plus safener tank mix, visual crop damage; format: in vivo
Experimental: as §1, §2, §3, §4

[3] = test system: wheat seeds (winter wheat, TRZAW); assay: Prior-art method: post-emergence herbicide and tank-mix safener, visual crop damage in greenhouse pots; settings: herbicide 200 g/ha post-emergence (BBCH11); no safener; 14 days after application; mean of at least 3 replicates
[4] = test system: wheat seeds (winter wheat, TRZAW); assay: Method A: safener seed treatment then post-emergence herbicide, visual crop damage in greenhouse pots; format: in vivo
Experimental: as §1, §2, §3, §4

[5] = herbicide 200 g/ha post-emergence (BBCH11), no safener, 14 days after application
[6] = safener seed treatment 0.5 g/kg only, no herbicide

SMILES | % crop damage ([1]; herbicide 50 g/ha pre-emergence, no safener, 14 days after application) | % crop damage [2, 5] | % crop damage [3] | % crop damage [4, 5] | % crop damage ([1]; safener 200 g/ha in tank mix pre-emergence only, no herbicide, 14 days after application) | % crop damage [1, 6] | % crop damage ([2]; safener 200 g/ha in tank mix post-emergence only, no herbicide, 14 days after application) | % crop damage [2, 6] | % crop damage [4, 6]
Cc1ccccc1CO[C@@H]1C[C@@]2(C(C)C)CC[C@]1(C)O2 (racemic) [Herbicide post-em., Cinmethylin] | 17% | 28% | 28% | 28% |  |  |  |  | 
CCOC(=O)C1=NN(c2ccc(Cl)cc2Cl)C(C)(C(=O)OCC)C1 (stereo not drawn) [Safener seed treatment, ethyl 1-(2,4-dichlorophenyl)-5-(ethoxycarbonyl)-5-methyl-2-pyrazoline-3-carboxylate] |  |  |  |  | 5% | 2% | 5% | 0% | 0%
